{"source": "patent US12291511B2", "about": "“Polymerase inhibitors and related compositions and methods” (Promega Corporation, priority 2018, dated 2025)", "format_in_all_cases": "biochemical", "key": {"Taq [1]": {"biological_target": "T1, Taq (Thermus aquaticus, UniProt P19821)", "T1 sequence (P19821 whole entry)": "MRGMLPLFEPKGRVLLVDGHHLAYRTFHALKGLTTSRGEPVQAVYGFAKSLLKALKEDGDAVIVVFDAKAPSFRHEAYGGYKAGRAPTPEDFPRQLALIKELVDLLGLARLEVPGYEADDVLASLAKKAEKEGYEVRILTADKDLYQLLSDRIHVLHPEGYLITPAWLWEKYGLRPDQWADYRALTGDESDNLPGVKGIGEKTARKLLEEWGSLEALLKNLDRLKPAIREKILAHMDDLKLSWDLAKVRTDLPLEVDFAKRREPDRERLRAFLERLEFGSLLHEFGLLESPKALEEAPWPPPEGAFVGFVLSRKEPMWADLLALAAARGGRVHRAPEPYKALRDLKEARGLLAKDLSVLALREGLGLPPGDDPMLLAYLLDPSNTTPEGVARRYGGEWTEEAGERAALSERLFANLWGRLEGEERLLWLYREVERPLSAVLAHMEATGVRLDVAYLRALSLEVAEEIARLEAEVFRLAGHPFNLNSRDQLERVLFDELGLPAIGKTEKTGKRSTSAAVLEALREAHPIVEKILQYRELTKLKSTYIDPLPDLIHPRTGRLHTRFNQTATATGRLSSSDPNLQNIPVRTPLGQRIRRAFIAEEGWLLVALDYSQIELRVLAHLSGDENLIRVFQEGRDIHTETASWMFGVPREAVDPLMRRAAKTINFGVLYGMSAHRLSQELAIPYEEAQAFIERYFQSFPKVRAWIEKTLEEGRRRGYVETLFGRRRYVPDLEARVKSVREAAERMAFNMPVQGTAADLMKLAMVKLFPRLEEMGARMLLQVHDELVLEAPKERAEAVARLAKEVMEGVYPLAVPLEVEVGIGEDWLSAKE", "assay": "Hot-start PCR of CCR5 gene (500 bp amplicon) with human genomic DNA as template", "conditions": "CCR5 target; for 500 bp yield: compared with no hot-start (GoTaq® DNA Polymerase)", "excerpt": "Testing of Human Genomic Templates. FIG. 11 includes a representative image of an agarose gel used to evaluate the CCR5 gene amplification products of various hot-start PCR reactions performed with and without two different polymerase inhibitors (compound #7124 and compound #7261) and using human genomic DNA as a template. The target amplicon is 500 bp, and without the use of hot-start, there is a significant amount of primer dimer. With compound #7124 and compound #7261, the 500 bp yield increased, but primer dimer amounts remained (compare to GoTaq® DNA Polymerase treatment for no hot-start and GoTaq® Hot-Start DNA Polymerase with an antibody-mediated hot-start). Reaction components are provided in Table 2 below; the following cycling methods were used: [(22° C. for 90 min, 94° C. for 2 min) 1 cycle, (92° C. for 30 sec, 68° C. for 2 min) 45 cycles, (72° C. for 5 min) 1 cycle, 4° C. soak]."}, "Taq [2]": {"biological_target": "T1, Taq", "assay": "Hot-start PCR of Human Dystrophin Alu 7-2 gene (320 bp amplicon) with human genomic DNA as template", "conditions": "HD Alu 7-2 target; for secondary products (seen as a smear): at certain concentrations; for 320 bp yield: human genomic DNA, compared with no hot-start", "experimental": "FIG. 12 includes a representative image of an agarose gel used to evaluate the Human Dystrophin Alu-72 gene amplification products of various hot-start PCR reactions performed with and without two different polymerase inhibitors (compound #7124 and compound #7261) and using human genomic DNA as a template. The target amplicon is 320 bp, and without hot-start, there is less yield. […] Reaction components are provided in Table 2 below; the following cycling methods were used: [(22° C. for 90 min, 94° C. for 2 min) 1 cycle, (94° C. for 50 sec, 59° C. for 50 sec, 68° C. for 2 min) 42 cycles, 4° C. soak]."}, "Taq DNA Polymerase": {"biological_target": "Taq DNA Polymerase (Thermus aquaticus, UniProt P19821)", "sequence (P19821 whole entry)": "as above", "assay": "Activated calf thymus DNA polymerase activity assay (radioactive incorporation) at 22° C.", "experimental": "Activity assays were used to test the concentrations of small molecule polymerase inhibitors in specific reaction conditions to determine inhibition efficacy. Corresponding IC50 values were also determined for the compounds. Activity assays were also used to test the temperatures or temperature ranges at which the reactions are inhibited by the compounds.\nExemplary activity assays can be carried out according to a variety of methods. For example, a DNA polymerase activity assay monitoring radioactive incorporation where “activated” calf thymus or salmon sperm DNA is used as the DNA substrate. Along with the DNA substrate, the reactions minimally contain a buffer (e.g., GoTaq® buffer), magnesium, dNTPs, and polymerase. Reactions were stopped, and DNA was precipitated by ice-cold TCA (tricholoracetic acid), incubated on ice for at least 10 minutes, filtered using GF/C filters, and radioactive incorporation in precipitable DNA (on filter) measured by scintillation counting. (See, e.g., Apospian & Kornberg. (1962) JBC 237:519-525.; Chien et al. (1976) J. Bact. 127:1550-1557.)\nFIG. 7 includes a representation of a polymerase activity assay carried out at 22° C., where an inhibitor (i.e. compound #7124) is titrated. FIG. 7 is an example of an activity assay where IC50 can be determined. […] Activated calf thymus DNA activity assay was used in these experiments. […]"}, "[3]": {"biological_target": "T2, GoTaq® DNA Polymerase (Taq DNA polymerase) (Thermus aquaticus, UniProt P19821)", "T2 construct": "purchased", "T2 sequence (P19821 whole entry, the tested form may be a part)": "as the sequence (P19821 whole entry) above", "assay": "Hot-start PCR of 1.5 kb fragment of the Corynephage omega gene from plasmid DNA, after 22° C. pre-incubation, agarose gel read-out", "conditions": "'25 to 150 μM or greater' for the derivatives", "experimental": "When carried out using hot-start conditions, the polymerase (e.g., Taq polymerase) was inhibited at lower temperatures, but activated at the start of amplification when temperatures increased to denature the DNA (e.g., 95° C.); the amplification produced a single product approximately 1.5 kb in size. When carried out using non-hot-start conditions, the DNA polymerase was not inhibited at lower temperatures, and amplification produced a product approximately 400 bp in size (among other secondary products), and the 1.5 kb fragment was transiently present. To test the ability of the thermally-labile small molecule polymerase to inhibit DNA polymerase (e.g., Taq DNA polymerase) activity, the amplification reactions were incubated at 22° C. for 1.5 to 6 hours or longer prior to performing PCR amplification.\nThe amplifications were set up at room temperature. The thermally-labile small molecule polymerase inhibitor(s) were titrated (concentrations will depend on exact compound, enzyme being inhibited, detergent concentration, and other buffer conditions) into reactions. For these experiments, the following composition were used: 1× GoTaq® Colorless Flexi Buffer, 2.5 mM MgCl2, 200 μM each dNTP, 0.4 μM each primer, 0.025 U/μl GoTaq® DNA Polymerase, 500 pg plasmid DNA and nuclease-free water to bring it to a 25 μl reaction. […]"}}, "note": "pIC50: −log10 of the molar value."}
{"smiles": "CCCCCCCCCCCCC(OC(=O)NCCCS(=O)(=O)[O-])c1ccc(OC)cc1.[Na+]", "note": "(centres unmarked) [compound #7124, Sodium 3-((((1-(4-methoxyphenyl)tridecyl)oxy)carbonyl)amino)propane-1-sulfonate]", "values": [{"measurement": "primer dimer amounts", "setting": "Taq [1]", "result": "remained"}, {"measurement": "500 bp yield", "setting": "Taq [1]", "result": "increased"}, {"measurement": "secondary products (seen as a smear)", "setting": "Taq [2]", "result": "dramatically decreased"}, {"measurement": "320 bp yield", "setting": "Taq [2]", "result": "increased"}, {"measurement": "inhibition ultimately reached as concentration increased", "setting": "Taq DNA Polymerase; high inhibitor concentration", "result": 100, "unit": "%"}, {"measurement": "pIC50", "setting": "Taq DNA Polymerase; titration of inhibitor, calculated from graph (FIG. 7)", "result": "~3.82"}]}
{"smiles": "CCCCCCCCCCCCC(OC(=O)NCCCS(=O)(=O)[O-])c1ccc(Cl)o1.[Na+]", "note": "(centres unmarked) [compound #7261, Sodium 3-((((1-(5-chlorofuran-2-yl)tridecyl)oxy)carbonyl)amino)propane-1-sulfonate]", "values": [{"measurement": "potency of DNA polymerase inhibitors (summary comparison of #7261 with derivatives)", "setting": "[3]", "result": "about 75 μM"}, {"measurement": "primer dimer amounts", "setting": "Taq [1]", "result": "remained"}, {"measurement": "500 bp yield", "setting": "Taq [1]", "result": "increased"}, {"measurement": "secondary products (seen as a smear)", "setting": "Taq [2]", "result": "dramatically decreased"}, {"measurement": "320 bp yield", "setting": "Taq [2]", "result": "increased"}]}
